According to paper PMC11104609, “Discovery of allosteric regulators with clinical potential to stabilize alpha-L-iduronidase in mucopolysaccharidosis type I” (PLOS ONE, 2024):

What was measured:
[1] = target: T1, rhIDUA (Aldurazyme) (Homo sapiens, UniProt P35475); assay: IDUA assay in plasma of mice co-administered rhIDUA and GT-01803; assay type: in vivo, male C57BL/6 mice; conditions: GT-01803 5, 10, 20 mg/kg i.v. + rhIDUA 1.2 mg/kg i.v.; 0.5, 1, 2 h; dose-dependent, significant at 20 mg/kg
T1 sequence (P35475 28-653): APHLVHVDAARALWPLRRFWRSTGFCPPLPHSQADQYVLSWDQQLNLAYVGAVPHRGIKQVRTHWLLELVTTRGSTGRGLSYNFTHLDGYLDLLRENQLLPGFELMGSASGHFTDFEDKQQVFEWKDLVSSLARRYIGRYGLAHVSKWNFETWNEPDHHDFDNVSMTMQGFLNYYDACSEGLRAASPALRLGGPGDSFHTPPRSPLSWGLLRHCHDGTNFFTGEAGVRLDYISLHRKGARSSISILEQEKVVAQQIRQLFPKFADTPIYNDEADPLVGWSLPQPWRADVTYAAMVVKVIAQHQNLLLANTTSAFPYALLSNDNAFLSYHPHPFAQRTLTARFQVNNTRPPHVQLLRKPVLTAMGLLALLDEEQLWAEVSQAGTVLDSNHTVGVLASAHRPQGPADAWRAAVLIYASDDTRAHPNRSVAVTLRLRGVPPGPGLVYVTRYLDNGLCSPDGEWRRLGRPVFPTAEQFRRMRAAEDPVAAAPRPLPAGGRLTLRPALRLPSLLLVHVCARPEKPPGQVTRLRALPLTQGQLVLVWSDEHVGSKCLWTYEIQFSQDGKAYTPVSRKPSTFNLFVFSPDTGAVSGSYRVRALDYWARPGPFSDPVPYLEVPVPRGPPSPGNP
Description: (§1) Mice studies were performed by Sai Life Sciences (Pune, India). All procedures of the present study were in accordance with the guidelines provided by the Committee for the Purpose of Control and Supervision of Experiments on Animals (CPCSEA) as published in The Gazette of India, December 15, 1998. In addition, prior approval from the Institutional Animal Ethics Committee (IAEC) was obtained before the initiation of the study. Healthy male C57BL/6 mice (8–10 weeks old) weighing between 22 and 25 g were procured (Global, Pune, India). Three to five mice were housed in each cage. Temperature and humidity were maintained at 22 ± 2 °C and 41–63%, respectively, and illumination was controlled to give a sequence of a 12 h light and 12 h dark cycle. In the study’s in-life phase, we provided all mice with cage enrichment to minimize anxiety. We conducted bone marrow sampling under isoflurane anesthesia, maintaining it throughout the entire procedure. […] All procedures were carried out according to our in-house Standard Operating Procedures and monitored by a veterinarian if required. […]
Plasma samples from mice were collected at 0.5, 1 and 2 h after treatment with compound #18 (GT-01803). […] The plate was read at excitation 355 nm and emission 460 nm in TECAN Infinite® M1000 Pro reader (Thermo Fisher Scientific, UK). […]

[2] = target: T1, rhIDUA (Aldurazyme); assay: IDUA assay in bone marrow of mice co-administered rhIDUA and GT-01803; assay type: in vivo, male C57BL/6 mice; conditions: GT-01803 5, 10, 20 mg/kg i.v. + rhIDUA 1.2 mg/kg i.v.; 6, 8, 10 h; dose-dependent, significant at 20 mg/kg
Description: as §1
Bone marrow samples from mice were collected at 2, 6, 8 and 10 h after treatment with compound #18 (GT-01803). […] The relative fluorescence unit (RFU) in the IDUA enzymatic assay was measured in duplicates (two replicates) and then averaged to obtain the enzyme activity per animal.

IDUA enzymatic activity levels in plasma [1]: increased
IDUA enzymatic activity levels in bone marrow [2]: increased
Structure (SMILES): CCN(CC(=O)Nc1c(Cl)cccc1Cl)Cc1nc2ccsc2c(=O)[nH]1 [GT-01803]
